Like-named read-outs stand apart in the source and are kept apart here.
Assays:
[1] = system: SARS-CoV-2; experiment: Inhibitory activity of cytopathic effect (CPE) in HEK293T/ACE2-TMPRSS2 cells; type: cell-based; details: Severe acute respiratory syndrome coronavirus 2, HEK-293T, 72 h
[2] = biological target: SARS-CoV-2 3CL protease (Severe acute respiratory syndrome coronavirus 2, UniProt P0DTD1); experiment: Inhibitory activity test against SARS-CoV-2 3CL proteases; type: biochemical
[3] = HEK293T/ACE2-TMPRSS2 cells, cultured 3 days, CellTiter-Glo 2.0 luminescence, read-out: EC50 (50% SARS-CoV-2 infected cell death inhibitory concentration)
[4] = read-out: IC50 (50% SARS-CoV-2 3CL protease inhibitory concentration)
[5] = 50% SARS-CoV-2 infected cell death inhibitory concentration, HEK293T/ACE2-TMPRSS2 cells, CellTiter-Glo 2.0 after 3 days culture, read-out: EC50
[6] = IC50 (50% SARS-CoV-2 3CL protease inhibitory concentration)

Row | SMILES | EC50 [1, 3] | IC50 [2, 4] | other results
1 | COc1nc(N2CC(C#N)C2)cc2c1c(=O)n(-c1cnc3cc(F)ccn13)c(=O)n2-c1ccc(F)c(Cl)c1 [Compound I-1017] | < 100 nM | < 100 nM | –
2 | Cc1cncc(-n2c(=O)c3c(n(Cc4cc(F)c(F)c(F)c4)c2=O)CN(c2cc(C#N)ccc2Cl)CC3)c1 [Compound I-0658] | 100 to 1000 nM | 100 to 1000 nM | –
3 | CC(C)Nc1cc2c(c(=O)n(Cc3ncn(C)n3)c(=O)n2Cc2cc(F)c(F)c(Cl)c2)c2nccnc12 [Compound I-0575] | < 100 nM | < 100 nM | –
4 | COc1cc(-c2cn3nncc3cc2Cl)cc2c1c(=O)n(Cc1ncn(C)n1)c(=O)n2Cc1cc(F)c(F)c(F)c1 [Compound I-0914] | < 100 nM | < 100 nM | –
5 | O=c1c2c(=O)n(-c3cnc4cc(F)ccn34)c(=O)n(-c3ccc(F)c(Cl)c3)c2cc2n1CC[C@@H]1CCCCN21 [Compound I-1048] | – | 23 nM | EC50 [1, 5]: 436 nM
6 | COc1cc(-c2cc([C@@H](C)O)ccc2Cl)cc2c1c(=O)n(Cc1ncn(C)n1)c(=O)n2Cc1cc(F)c(F)c(F)c1 [Compound I-0839] | 100 to 1000 nM | < 100 nM | –
7 | COc1nc(N(C)C(C)C)cc2c1c(=O)n(-c1cnc3cc(F)ccn13)c(=O)n2-c1ccc(F)c(Cl)c1 [Compound I-1034] | < 100 nM | < 100 nM | –
8 | COc1nc2c(=O)n(Cc3ncn(C)n3)c(=O)n(Cc3cc(Cl)c(F)cc3C)c2cc1-c1nc(C)ccc1Cl [Compound I-0581] | < 100 nM | < 100 nM | –
9 | COc1nc(N2CCC3(CCOC3)C2)cc2c1c(=O)n(-c1cnc3cc(F)ccn13)c(=O)n2-c1ccc(F)c(Cl)c1 (stereo not shown) [Compound I-1060] | < 100 nM | < 100 nM | –
10 | COc1cc(-c2ccc(CC#N)cc2Cl)cc2c1c(=O)n(Cc1ncn(C)n1)c(=O)n2Cc1cc(F)c(F)c(F)c1 [Compound I-0907] | 100 to 1000 nM | < 100 nM | –
11 | COc1nc(N2CCC(S(C)(=O)=O)C2)cc2c1c(=O)n(-c1cnc3cc(F)ccn13)c(=O)n2-c1ccc(F)c(Cl)c1 (stereo not shown) [Compound I-1007] | 100 to 1000 nM | < 100 nM | –
12 | O=c1c2c(=O)n(-c3cnc4cc(F)ccn34)c(=O)n(-c3ccc(F)c(Cl)c3)c2cc2n1C[C@@H]1CCCN21 [Compound I-0628] | – | 26 nM | EC50 [1, 5]: 661 nM
13 | Cn1cnc(Cn2c(=O)c3c4nccnc4c(-c4cc(C#N)ccc4Cl)cc3n(Cc3cc(F)c(F)c(F)c3)c2=O)n1 [Compound I-0934] | < 100 nM | < 100 nM | –
14 | C=Cc1cc2c(c(OC)n1)c(=O)n(-c1cnc3cc(F)ccn13)c(=O)n2-c1ccc(F)c(F)c1 [Compound I-1047] | 100 to 1000 nM | < 100 nM | –
15 | CCOc1nc2cc(-c3cc(OC)c4c(=O)n(Cc5ncn(C)n5)c(=O)n(Cc5cc(F)c(F)c(F)c5)c4c3)c(Cl)cc2[nH]1 [Compound I-0852] | 100 to 1000 nM | < 100 nM | –
16 | COc1nc(N2CC[C@@H](F)C2)cc2c1c(=O)n(-c1cnc3cc(F)ccn13)c(=O)n2-c1ccc(F)c(Cl)c1 [Compound I-0746] | – | 1.4 nM | EC50 [1, 5]: 5.6 nM
17 | COc1nc2c(=O)n(-c3cnc4cc(F)ccn34)c(=O)n(Cc3cc(Cl)c(F)cc3C)c2cc1-c1cc(C(C)(C)O)ccc1Cl [Compound I-0843] | – | 7.4 nM | EC50 [1, 5]: 72.3 nM
18 | CCc1nc(N2CCC(F)(F)C2)cc2c1c(=O)n(-c1cncc(Cl)c1)c(=O)n2-c1ccc(F)c(F)c1 [Compound I-1023] | < 100 nM | < 100 nM | –
19 | COc1nc(N2CC[C@@H](C#N)C2)cc2c1c(=O)n(-c1cncc(OC(F)F)c1)c(=O)n2-c1ccc(F)c(F)c1 [Compound I-0995] | < 100 nM | < 100 nM | –
20 | COc1cc(-c2cc3c(C(F)(F)F)n[nH]c3cc2Cl)cc2c1c(=O)n(Cc1ncn(C)n1)c(=O)n2Cc1cc(F)c(F)c(F)c1 [Compound I-0875] | < 100 nM | < 100 nM | –
21 | COc1nc(N2CCC(F)(F)C2)cc2c1c(=O)n(-c1cncc(C)n1)c(=O)n2-c1ccc(F)c(Cl)c1 [Compound I-0997] | < 100 nM | < 100 nM | –
22 | Cn1cnc(Cn2c(=O)c3c(cc(-c4cc(C#N)ccc4Cl)n4c(=O)[nH]nc34)n(Cc3cc(F)c(F)c(F)c3)c2=O)n1 [Compound I-0647] | – | 5.7 nM | EC50 [1, 5]: 13900 nM
23 | COc1nc(N2CCC(F)(F)C2)cc2c1c(=O)n(-c1cnc3cc(F)c(Cl)cn13)c(=O)n2-c1ccc(F)c(Cl)c1 [Compound I-0655] | < 100 nM | < 100 nM | –
24 | COc1nc(N2CC[C@@H](C#N)C2)cc2c1c(=O)n(-c1cncc(Cl)c1)c(=O)n2-c1ccc(F)c(Cl)c1 [Compound I-0936] | – | 1.1 nM | EC50 [1, 5]: 5.34 nM
25 | COc1nc2c(=O)n(Cc3ncn(C)n3)c(=O)n(Cc3cc(Cl)c(F)cc3C)c2cc1-c1cc(C(C)(C)O)ccc1Cl [Compound I-0822] | < 100 nM | < 100 nM | –

Row | SMILES | EC50 [1, 3] | IC50 [2, 4] | other results
26 | COc1nc(N2C[C@@H]3C[C@H]2CO3)cc2c1c(=O)n(-c1cnc3cc(F)ccn13)c(=O)n2-c1ccc(F)c(C(F)F)c1 [Compound I-0960] | < 100 nM | < 100 nM | –
27 | COc1nc(N2CC[C@@H](C#N)C2)cc2c1c(=O)n(-c1cnc3cc(F)ccn13)c(=O)n2-c1ccc(F)c(F)c1 [Compound I-0959] | < 100 nM | < 100 nM | –
28 | COc1nc(N2CCC3(COC3)C2)cc2c1c(=O)n(-c1cnc3cc(F)ccn13)c(=O)n2-c1ccc(F)c(Cl)c1 [Compound I-1039] | < 100 nM | < 100 nM | –
29 | COc1nc(N2[C@@H]3CC[C@H]2CNC3)cc2c1c(=O)n(-c1cnc3cc(Cl)ccn13)c(=O)n2Cc1cc(F)c(F)c(F)c1 [Compound I-0683] | – | – | EC50 [1]: 45.4 nM; IC50 [2, 6]: 9.9 nM
30 | COc1nc(N2CC[C@@H](C(=O)O)C2)cc2c1c(=O)n(-c1cnc3cc(F)ccn13)c(=O)n2-c1ccc(F)c(Cl)c1 [Compound I-0625] | 100 to 1000 nM | < 100 nM | –
31 | COc1nc(N2CCC(O)(C(F)F)C2)cc2c1c(=O)n(-c1cncc(Cl)c1)c(=O)n2-c1ccc(F)c(Cl)c1 (stereo not shown) [Compound I-1036] | < 100 nM | < 100 nM | –
32 | Cn1cnc(Cn2c(=O)c3c4ncccc4c(-c4cc(C#N)ccc4Cl)cc3n(Cc3cc(F)c(F)c(F)c3)c2=O)n1 [Compound I-0632] | – | 3.1 nM | EC50 [1, 5]: 50.1 nM
33 | COc1nc(N2CC(O)(C(F)(F)F)C2)cc2c1c(=O)n(-c1cnc3cc(F)ccn13)c(=O)n2-c1ccc(F)c(Cl)c1 [Compound I-0753] | – | 21 nM | EC50 [1, 5]: 35.7 nM
34 | COc1nc(N2[C@@H]3CC[C@H]2CNC3)cc2c1c(=O)n(-c1cc(C)cnn1)c(=O)n2Cc1cc(F)c(F)c(F)c1 [Compound I-0926] | – | – | EC50 [1]: 106 nM; IC50 [2, 6]: 5.1 nM
35 | COc1cc(-c2cc3cc[nH]c3cc2Cl)cc2c1c(=O)n(Cc1ncn(C)n1)c(=O)n2Cc1cc(F)c(F)c(F)c1 [Compound I-0901] | < 100 nM | < 100 nM | –
36 | COc1nc(N2CC[C@@H](NC(C)=O)C2)cc2c1c(=O)n(-c1cncc(Cl)c1)c(=O)n2-c1ccc(F)c(Cl)c1 [Compound I-0994] | < 100 nM | < 100 nM | –
37 | COc1nc(N2CCC(N(C)C)C2)cc2c1c(=O)n(-c1cncc(Cl)c1)c(=O)n2-c1ccc(F)c(Cl)c1 (stereo not shown) [Compound I-1022] | < 100 nM | < 100 nM | –
38 | COc1nc(N2CCCC2)cc2c1c(=O)n(-c1cnc3cc(F)ccn13)c(=O)n2-c1ccc(F)c(Cl)c1 [Compound I-0752] | < 100 nM | < 100 nM | –
39 | COc1nc(N2CCC(n3cccn3)C2)cc2c1c(=O)n(-c1cnc3cc(F)ccn13)c(=O)n2-c1ccc(F)c(Cl)c1 (stereo not shown) [Compound I-0975] | < 100 nM | < 100 nM | –
40 | COCCCc1cc2c(c(OC)n1)c(=O)n(-c1cnc3cc(F)ccn13)c(=O)n2-c1ccc(F)c(Cl)c1 [Compound I-1062] | < 100 nM | < 100 nM | –
41 | COc1nc(N2[C@@H]3CCC[C@H]2CNC3)cc2c1c(=O)n(-c1cnc3ccccn13)c(=O)n2Cc1cc(F)c(F)c(Cl)c1 [Compound I-0648] | – | – | EC50 ([1]; read-out: EC50 (50% SARS-CoV-2 infected cell death inhibitory concentration)): < 100 nM; IC50 [2, 6]: < 100 nM
42 | [2H]C([2H])([2H])O[C@@H]1CCN(c2cc3c(c(OC)n2)c(=O)n(-c2cncc(OCF)c2)c(=O)n3-c2ccc(F)c(F)c2)C1 [Compound I-1012] | < 100 nM | < 100 nM | –
43 | COc1nc(N2[C@@H]3CC[C@H]2CNC3)cc2c1c(=O)n(-c1cnc3ccc(Cl)cn13)c(=O)n2-c1ccc(F)c(Cl)c1 [Compound I-0806] | – | – | EC50 [1]: 25.1 nM; IC50 [2, 6]: 3.9 nM
44 | COc1nc(N2CC[C@@H](C#N)C2)cc2c1c(=O)n(-c1cncc(F)c1)c(=O)n2-c1ccc(F)c(F)c1 [Compound I-0990] | – | 6.8 nM | EC50 [1, 5]: 8.89 nM
45 | O=c1c2c(=O)n(-c3cnc4cc(F)ccn34)c(=O)n(-c3ccc(F)c(Cl)c3)c2cc2n1C[C@@H]1CCCCN21 [Compound I-0988] | 100 to 1000 nM | < 100 nM | –
46 | COc1nc(N2CC[C@@H](C#N)C2)cc2c1c(=O)n(-c1cnc3cc(F)c(F)cn13)c(=O)n2-c1ccc(F)c(Cl)c1 [Compound I-0946] | < 100 nM | < 100 nM | –
47 | COc1nc(NCC(F)(F)F)cc2c1c(=O)n(-c1cnc3cc(F)ccn13)c(=O)n2-c1ccc(F)c(Cl)c1 [Compound I-1041] | < 100 nM | < 100 nM | –
48 | COc1nc(N2CC[C@@H](C#N)C2)cc2c1c(=O)n(-c1cncc(C#N)c1)c(=O)n2-c1ccc(F)c(F)c1 [Compound I-0984] | < 100 nM | < 100 nM | –
49 | COc1nc(N2CC[C@@H](O)C2)cc2c1c(=O)n(-c1cncc(OCF)c1)c(=O)n2-c1ccc(F)c(F)c1 [Compound I-1025] | < 100 nM | < 100 nM | –
50 | Cc1c(-c2cc(C#N)ccc2Cl)cc2c(c1F)c(=O)n(Cc1ncn(C)n1)c(=O)n2Cc1cc(F)c(F)c(Cl)c1 [Compound I-0637] | < 100 nM | < 100 nM | –
